Drawing on ChEMBL document CHEMBL1909046, “DrugMatrix in vitro pharmacology data”, this text covers IC50 and Ki for 21 compounds.

Test [1] concerns the target T1, Alpha-2C adrenergic receptor (Homo sapiens, UniProt P18825).
T1 sequence (P18825 whole entry): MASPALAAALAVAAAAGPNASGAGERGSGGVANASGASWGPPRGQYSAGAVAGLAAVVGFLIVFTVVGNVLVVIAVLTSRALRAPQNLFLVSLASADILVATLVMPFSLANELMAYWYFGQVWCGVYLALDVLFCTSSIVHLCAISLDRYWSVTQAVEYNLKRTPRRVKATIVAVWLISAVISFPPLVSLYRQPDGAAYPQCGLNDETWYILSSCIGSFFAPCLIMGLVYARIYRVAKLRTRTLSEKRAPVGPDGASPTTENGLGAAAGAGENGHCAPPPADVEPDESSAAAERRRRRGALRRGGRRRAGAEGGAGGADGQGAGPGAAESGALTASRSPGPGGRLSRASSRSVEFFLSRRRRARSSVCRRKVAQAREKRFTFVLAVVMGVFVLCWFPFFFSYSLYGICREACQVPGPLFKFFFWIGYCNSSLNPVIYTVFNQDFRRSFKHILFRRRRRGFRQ
Kind of test: DRUGMATRIX: Adrenergic Alpha-2C radioligand binding (ligand: [3H] MK-912). In kind it is cell membranes, Sf9, Membrane.

Test [2] is described as follows: DRUGMATRIX: Calcium Channel Type L, Benzothiazepine radioligand binding (ligand: [3H] Diltiazem). The format is cell membranes, Rattus norvegicus, Wistar, Brain, Membrane. The settings on record: Not Active = under 50% inhibition at 10 µM.
The target in the next test is D(1A) dopamine receptor (Homo sapiens, UniProt P21728). As to the kind of experiment: DRUGMATRIX: Dopamine D1 radioligand binding (ligand: [3H] SCH-23390). In kind it is cell membranes, CHO, Membrane. The settings on record: Not Active = under 50% inhibition at 10 µM.
D(1A) dopamine receptor, sequence (P21728 whole entry): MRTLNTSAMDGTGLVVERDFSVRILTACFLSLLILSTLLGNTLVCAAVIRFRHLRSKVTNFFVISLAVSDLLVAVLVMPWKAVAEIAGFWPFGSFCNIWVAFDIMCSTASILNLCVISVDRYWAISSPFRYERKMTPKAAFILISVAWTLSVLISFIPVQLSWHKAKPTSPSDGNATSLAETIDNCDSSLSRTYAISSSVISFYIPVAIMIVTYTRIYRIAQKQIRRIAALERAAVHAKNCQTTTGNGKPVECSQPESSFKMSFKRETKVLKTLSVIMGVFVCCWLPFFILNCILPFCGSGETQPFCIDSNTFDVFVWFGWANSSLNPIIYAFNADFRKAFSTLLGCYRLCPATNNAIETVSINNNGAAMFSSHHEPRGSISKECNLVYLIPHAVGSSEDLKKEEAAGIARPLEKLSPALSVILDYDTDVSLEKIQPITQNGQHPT
Test [3] has as its target Beta-3 adrenergic receptor (Homo sapiens, UniProt P13945). Kind of test: DRUGMATRIX: Adrenergic beta3 radioligand binding (ligand: [125I] Cyanopindolol). The format is cell membranes, HEK293, Membrane. The settings on record: hek293; Not Active = under 50% inhibition at 10 µM.

Beta-3 adrenergic receptor, sequence (P13945 whole entry): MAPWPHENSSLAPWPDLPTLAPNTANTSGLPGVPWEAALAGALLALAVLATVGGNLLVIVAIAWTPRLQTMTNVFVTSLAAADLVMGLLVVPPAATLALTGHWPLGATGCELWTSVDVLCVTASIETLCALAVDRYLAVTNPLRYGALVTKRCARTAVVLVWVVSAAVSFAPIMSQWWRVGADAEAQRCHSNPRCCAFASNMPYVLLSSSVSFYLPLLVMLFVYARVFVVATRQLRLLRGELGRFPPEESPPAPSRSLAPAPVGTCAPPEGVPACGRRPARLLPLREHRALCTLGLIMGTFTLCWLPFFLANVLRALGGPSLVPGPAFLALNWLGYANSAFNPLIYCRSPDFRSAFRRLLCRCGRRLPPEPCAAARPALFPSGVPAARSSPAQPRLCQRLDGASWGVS

Take `CCC(C)n1ncn(-c2ccc(N3CCN(c4ccc(OCC5COC(Cn6cncn6)(c6ccc(Cl)cc6Cl)O5)cc4)CC3)cc2)c1=O` (stereo unspecified) [ITRACONAZOLE]: the IC50 entry (in test [1] (sf9); in test [2]; at D(1A) dopamine receptor (cho); in test [3]) was “Not Active” in each case. Also, the inhibition constant (Ki) (in general, a measure of affinity in units of concentration, obtained from inhibition or displacement) in test [2] is reported as “Not Active”.
For `CCCCN1CCCC[C@H]1C(=O)Nc1c(C)cccc1C` [LEVOBUPIVACAINE], the concentration for half-maximal inhibition (IC50) entry (in test [1] (sf9); in test [2]; at D(1A) dopamine receptor (cho); in test [3]) was “Not Active” in each case. Also, the Ki entry in test [2] is “Not Active”.
Consider `CCCCc1nc(Cl)c(CO)n1Cc1ccc(-c2ccccc2-c2nnn[nH]2)cc1` [LOSARTAN], for which the concentration for half-maximal inhibition (IC50) entry (in test [1] (sf9); in test [2]; at D(1A) dopamine receptor (cho); in test [3]) was “Not Active” each time. Also, the Ki result in test [2] is given as “Not Active”.
On to `Sc1ncnc2nc[nH]c12` [MERCAPTOPURINE ANHYDROUS], for which the IC50 result (in test [1] (sf9); in test [2]; at D(1A) dopamine receptor (cho); in test [3]) was “Not Active” each time. Also, the Ki result in test [2] is recorded as “Not Active”.
For `C[C@](N)(Cc1ccc(O)c(O)c1)C(=O)O` [METHYLDOPA], the IC50 result (in test [1] (sf9); in test [2]; on D(1A) dopamine receptor (cho); in test [3]) was “Not Active” throughout. Besides, the inhibition constant Ki result in test [2] is recorded as “Not Active”.
As for `C[C@]12CCC(=O)C=C1CC[C@@H]1[C@@H]2CC[C@@]2(C)[C@H]1CC[C@]2(C)O` [METHYLTESTOSTERONE], the IC50 entry (in test [1] (sf9); in test [2]; at D(1A) dopamine receptor (cho); in test [3]) was “Not Active” each time. Also, the Ki entry in test [2] was “Not Active”.
As to `Cc1ccccc1N1C(=O)c2cc(S(N)(=O)=O)c(Cl)cc2NC1C` (stereo unspecified) [METOLAZONE], the half-maximal inhibitory concentration (IC50) result (in test [1] (sf9); in test [2]; at D(1A) dopamine receptor (cho); in test [3]) was “Not Active” in each case. Moreover, in test [2], the Ki entry is “Not Active”.
On to `COCCc1ccc(OCC(O)CNC(C)C)cc1` (stereo unspecified) [METOPROLOL], for which the IC50 entry (in test [1] (sf9); in test [2]; on D(1A) dopamine receptor (cho); in test [3]) was “Not Active” in each case. Further, the Ki result in test [2] is given as “Not Active”.
With `CCn1cc(C(=O)O)c(=O)c2cc(F)c(N3CCNCC3)cc21` [NORFLOXACIN], the 50% inhibitory concentration (IC50) result (in test [1] (sf9); in test [2]; on D(1A) dopamine receptor (cho); in test [3]) was “Not Active” in each case. The inhibition constant Ki entry in test [2] was “Not Active”.
For `NC1=NC(=O)C(c2ccccc2)O1` (stereo unspecified) [PEMOLINE], the half-inhibitory concentration (IC50) result (in test [1] (sf9); in test [2]; at D(1A) dopamine receptor (cho); in test [3]) was “Not Active” in each case. In addition, the inhibitory constant (Ki) result in test [2] was “Not Active”.
`Nc1nc2c(ncn2CCC(CO)CO)c(=O)[nH]1` [PENCICLOVIR]: the IC50 entry (in test [1] (sf9); in test [2]; on D(1A) dopamine receptor (cho); in test [3]) was “Not Active” in each case. The Ki entry in test [2] was “Not Active”.
Regarding `C=C(C)C1(O)OC(=O)C=C1OC` (stereo unspecified) [PENICILLIC ACID], the 50% inhibitory concentration (IC50) entry (in test [1] (sf9); in test [2]; at D(1A) dopamine receptor (cho); in test [3]) was “Not Active” in each case. Also, the Ki entry in test [2] is reported as “Not Active”.
Take `CC1(C)S[C@@H]2[C@H](NC(=O)Cc3ccccc3)C(=O)N2[C@H]1C(=O)O` [PENICILLIN G]: the IC50 result (in test [1] (sf9); in test [2]; at D(1A) dopamine receptor (cho); in test [3]) was “Not Active” throughout. In addition, the Ki result in test [2] is on record as “Not Active”.
Regarding `C1CCC(C(CC2CCCCN2)C2CCCCC2)CC1` (stereo unspecified) [PERHEXILINE], the half-inhibitory concentration (IC50) (as a rule, the concentration at which inhibition is half-maximal) in test [1] (sf9) is “Not Active”; in test [2] (read-out: IC50), 1060 nM; on D(1A) dopamine receptor (cho), “Not Active”; in test [3], “Not Active”. The inhibition constant Ki in test [2] (read-out: Ki) was 939 nM.
In the case of `CCOc1ccc(NC(C)=O)cc1` [PHENACETIN], the 50% inhibitory concentration (IC50) entry (in test [1] (sf9); in test [2]; on D(1A) dopamine receptor (cho); in test [3]) was “Not Active” each time. In addition, the inhibitory constant (Ki) entry in test [2] was “Not Active”.
For `CNNCc1ccc(C(=O)NC(C)C)cc1` [PROCARBAZINE], the IC50 result (in test [1] (sf9); in test [2]; on D(1A) dopamine receptor (cho); in test [3]) was “Not Active” in each case. In addition, in test [2], the Ki entry is given as “Not Active”.
As to `CN(C)CCCN1c2ccccc2Sc2ccccc21` [PROMAZINE], the IC50 in test [1] (read-out: IC50) was 253 nM; in test [2] (read-out: IC50), 3220 nM; at D(1A) dopamine receptor (read-out: IC50), 2460 nM; in test [3], “Not Active”. The results for the Ki (in test [1] (read-out: Ki); in test [2] (read-out: Ki); at D(1A) dopamine receptor (read-out: Ki)) were 37 nM, 2860 nM and 1230 nM, respectively.
`CC(O)CO` (stereo unspecified) [PROPYLENE GLYCOL]: the IC50 result (in test [1] (sf9); in test [2]; at D(1A) dopamine receptor (cho); in test [3]) was “Not Active” each time. Besides, the inhibitory constant (Ki) result in test [2] is “Not Active”.
Turning to CADMIUM ACETATE, the half-inhibitory concentration (IC50) entry (in test [1] (sf9); in test [2]; at D(1A) dopamine receptor (cho); in test [3]) was “Not Active” in each case. Further, the inhibitory constant (Ki) entry (in test [1] (sf9); in test [2]; on D(1A) dopamine receptor (cho); in test [3]) was “Not Active” each time.
With LEAD (II) ACETATE, the IC50 entry (in test [1] (sf9); in test [2]; at D(1A) dopamine receptor (cho); in test [3]) was “Not Active” each time. For the same compound, the inhibition constant Ki entry (in test [1] (sf9); in test [2]; on D(1A) dopamine receptor (cho); in test [3]) was “Not Active” in each case.
For LIPOPOLYSACCHARIDE E. COLI O55:B5, the IC50 entry (in test [1] (sf9); in test [2]; on D(1A) dopamine receptor (cho); in test [3]) was “Not Active” throughout. For the same compound, the Ki entry (in test [1] (sf9); in test [2]; at D(1A) dopamine receptor (cho); in test [3]) was “Not Active” in each case.
